The text below walks through data of ChEMBL document CHEMBL3867433, “Synthesis and antimicrobial activity of styryl/pyrrolyl/pyrazolyl sulfonylmethyl-1,3,4-oxadiazolyl amines and styryl/pyrrolyl/pyrazolyl sulfonylmethyl-1,3,4-thiadiazolyl amines” (2016).

Usually MIC stands for the smallest concentration in the dilution series that meets the test's criterion for growth inhibition.

Holding throughout (assay type): functional
For test [1], the system named is Aspergillus niger. Nature of the test: Antifungal activity against Aspergillus niger assessed as inhibition of spore germination at 12.5 ug/well after 48 hrs by agar well diffusion method. The following applies: read-out: DIZ.
Test [2] deals with Aspergillus niger. Nature of the test: Antifungal activity against Aspergillus niger assessed as inhibition of spore germination at 25 ug/well after 48 hrs by agar well diffusion method. The following applies: read-out: DIZ. (Agar diffusion results depend on both activity and mobility in agar.)
The test system of test [3] is Aspergillus niger. Nature of the test: Antifungal activity against Aspergillus niger assessed as inhibition of spore germination at 50 ug/well after 48 hrs by agar well diffusion method. As to conditions: read-out: DIZ.
The subject of test [4] is Aspergillus niger. The experiment in a line: Antifungal activity against Aspergillus niger assessed as inhibition of spore germination at 100 ug/well after 48 hrs by agar well diffusion method. The following applies: read-out: DIZ.
A short description of test [5]: Antifungal activity against Penicillium chrysogenum assessed as inhibition of spore germination at 12.5 ug/well after 48 hrs by agar well diffusion method.
Test [6] in a line: Antifungal activity against Penicillium chrysogenum assessed as inhibition of spore germination at 25 ug/well after 48 hrs by agar well diffusion method.
A short description of test [7]: Antifungal activity against Penicillium chrysogenum assessed as inhibition of spore germination at 50 ug/well after 48 hrs by agar well diffusion method.
A short description of test [8]: Antifungal activity against Penicillium chrysogenum assessed as inhibition of spore germination at 100 ug/well after 48 hrs by agar well diffusion method.
Test [9] relates to Aspergillus niger. The experiment in a line: Antifungal activity against Aspergillus niger assessed as inhibition of spore germination after 48 hrs by broth dilution method. On the technique in general: Broth dilution looks for growth in wells or tubes with falling amounts of substance.
A short description of test [10]: Antifungal activity against Penicillium chrysogenum assessed as inhibition of spore germination after 48 hrs by broth dilution method.
In test [11] the test system is Staphylococcus aureus. Nature of the test: Antibacterial activity against Staphylococcus aureus at 12.5 ug/well after 24 hrs by agar well diffusion method. As to conditions: read-out: DIZ.
Test [12] concerns Staphylococcus aureus. The experiment in a line: Antibacterial activity against Staphylococcus aureus at 25 ug/well after 24 hrs by agar well diffusion method. The following applies: read-out: DIZ.
Test [13] has as its system Staphylococcus aureus. The experiment in a line: Antibacterial activity against Staphylococcus aureus at 50 ug/well after 24 hrs by agar well diffusion method. As to conditions: read-out: DIZ.
Test [14] deals with Staphylococcus aureus. The experiment in a line: Antibacterial activity against Staphylococcus aureus at 100 ug/well after 24 hrs by agar well diffusion method. As to conditions: read-out: DIZ.
Test [15] has as its system Bacillus subtilis. Nature of the test: Antibacterial activity against Bacillus subtilis at 12.5 ug/well after 24 hrs by agar well diffusion method. As to conditions: read-out: DIZ.
Test [16] concerns Bacillus subtilis. Nature of the test: Antibacterial activity against Bacillus subtilis at 25 ug/well after 24 hrs by agar well diffusion method. As to conditions: read-out: DIZ.
Test [17] deals with Bacillus subtilis. The experiment in a line: Antibacterial activity against Bacillus subtilis at 50 ug/well after 24 hrs by agar well diffusion method. The following applies: read-out: DIZ.
Test [18] relates to Bacillus subtilis. The experiment in a line: Antibacterial activity against Bacillus subtilis at 100 ug/well after 24 hrs by agar well diffusion method. As to conditions: read-out: DIZ.
Test [19] relates to Pseudomonas aeruginosa. The experiment in a line: Antibacterial activity against Pseudomonas aeruginosa at 12.5 ug/well after 24 hrs by agar well diffusion method. As to conditions: read-out: DIZ.
For test [20], the system named is Pseudomonas aeruginosa. Nature of the test: Antibacterial activity against Pseudomonas aeruginosa at 25 ug/well after 24 hrs by agar well diffusion method. As to conditions: read-out: DIZ.
For test [21], the system named is Pseudomonas aeruginosa. Nature of the test: Antibacterial activity against Pseudomonas aeruginosa at 50 ug/well after 24 hrs by agar well diffusion method. As to conditions: read-out: DIZ.
For test [22], the system named is Pseudomonas aeruginosa. Nature of the test: Antibacterial activity against Pseudomonas aeruginosa at 100 ug/well after 24 hrs by agar well diffusion method. As to conditions: read-out: DIZ.
Test [23] has as its system Klebsiella pneumoniae. Nature of the test: Antibacterial activity against Klebsiella pneumoniae at 12.5 ug/well after 24 hrs by agar well diffusion method. The following applies: read-out: DIZ.
Test [24] deals with Klebsiella pneumoniae. The experiment in a line: Antibacterial activity against Klebsiella pneumoniae at 25 ug/well after 24 hrs by agar well diffusion method. The following applies: read-out: DIZ.
Test [25] deals with Klebsiella pneumoniae. Nature of the test: Antibacterial activity against Klebsiella pneumoniae at 50 ug/well after 24 hrs by agar well diffusion method. As to conditions: read-out: DIZ.
Test [26] concerns Klebsiella pneumoniae. The experiment in a line: Antibacterial activity against Klebsiella pneumoniae at 100 ug/well after 24 hrs by agar well diffusion method. The following applies: read-out: DIZ.
Test [27] concerns Staphylococcus aureus. The experiment in a line: Antibacterial activity against Staphylococcus aureus after 24 hrs by broth dilution method.
Test [28] concerns Bacillus subtilis. The experiment in a line: Antibacterial activity against Bacillus subtilis after 24 hrs by broth dilution method.
Test [29] relates to Pseudomonas aeruginosa. Nature of the test: Antibacterial activity against Pseudomonas aeruginosa after 24 hrs by broth dilution method.
Test [30] deals with Klebsiella pneumoniae. The experiment in a line: Antibacterial activity against Klebsiella pneumoniae after 24 hrs by broth dilution method.

Converted amounts (≈) assume the structure as drawn.

Consider `CC(=O)N1CCN(c2ccc(OCC3COC(Cn4ccnc4)(c4ccc(Cl)cc4Cl)O3)cc2)CC1` (stereo unspecified) [KETOCONAZOLE], for which, in the test with Aspergillus niger [1], the zone of inhibition at 12.5 µg/disc amounted to 29 mm. Further, the zone of inhibition at 25 µg/disc in the test on Aspergillus niger [2] is 31 mm. In the test on Aspergillus niger [3], the zone of inhibition at 50 µg/disc was determined as 34 mm. Also, in the test with Aspergillus niger [4], the zone of inhibition at 100 µg/disc was found to be 37 mm. Further, the inhibition zone (IZ) in test [5] is 34 mm; in test [6], 36 mm; in test [7], 37 mm; in test [8], 39 mm. The MIC in the test on Aspergillus niger [9] came to 6.25 µg/mL (≈ 11.8 µM); in test [10] it was 12.5 µg/mL (≈ 23.5 µM).
For the compound `O=C(N[C@H](CO)[C@H](O)c1ccc([N+](=O)[O-])cc1)C(Cl)Cl` [CHLORAMPHENICOL], the zone of inhibition at 12.5 µg/disc with Staphylococcus aureus [11] turned out to be 30 mm; in the test with Bacillus subtilis [15], 32 mm; in the test on Pseudomonas aeruginosa [19] it was 25 mm; in the test on Klebsiella pneumoniae [23], 38 mm. In addition, the zone of inhibition at 25 µg/disc with Staphylococcus aureus [12] was 32 mm; in the test on Bacillus subtilis [16], 34 mm; with Pseudomonas aeruginosa [20] it was 27 mm; in the test with Klebsiella pneumoniae [24] it was 40 mm. Moreover, the zone of inhibition at 50 µg/disc was 35 mm with Staphylococcus aureus [13], 36 mm with Bacillus subtilis [17], 29 mm in the test with Pseudomonas aeruginosa [21] and 42 mm in the test with Klebsiella pneumoniae [25]. The zone of inhibition at 100 µg/disc in the test with Staphylococcus aureus [14] came out at 37 mm; with Bacillus subtilis [18], 40 mm; with Pseudomonas aeruginosa [22] it was 32 mm; with Klebsiella pneumoniae [26], 44 mm. In addition, the MIC against Staphylococcus aureus [27] is 6.25 µg/mL (≈ 19.3 µM); against Bacillus subtilis [28], 6.25 µg/mL (≈ 19.3 µM); against Pseudomonas aeruginosa [29], 6.25 µg/mL (≈ 19.3 µM); in the test with Klebsiella pneumoniae [30], 12.5 µg/mL (≈ 38.7 µM).
Take `Cc1ccc(-c2c[nH]nc2S(=O)(=O)Cc2nnc(N)s2)cc1`: the zone of inhibition at 12.5 µg/disc in the test on Staphylococcus aureus [11] turned out to be 16 mm; in the test on Bacillus subtilis [15] it was 21 mm; with Pseudomonas aeruginosa [19], 20 mm; with Klebsiella pneumoniae [23], 22 mm; in the test on Aspergillus niger [1] it was 21 mm. In addition, the zone of inhibition at 25 µg/disc turned out to be 17 mm in the test with Staphylococcus aureus [12]; 22 mm in the test with Bacillus subtilis [16]; 22 mm in the test with Pseudomonas aeruginosa [20]; 24 mm in the test on Klebsiella pneumoniae [24]; 23 mm in the test on Aspergillus niger [2]. For the same compound, the zone of inhibition at 50 µg/disc in the test with Staphylococcus aureus [13] is 18 mm; in the test on Bacillus subtilis [17], 23 mm; in the test on Pseudomonas aeruginosa [21], 24 mm; with Klebsiella pneumoniae [25], 26 mm; in the test on Aspergillus niger [3], 25 mm. Further, the zone of inhibition at 100 µg/disc in the test on Staphylococcus aureus [14] worked out at 20 mm; in the test with Bacillus subtilis [18] it was 25 mm; in the test with Pseudomonas aeruginosa [22] it was 26 mm; with Klebsiella pneumoniae [26], 28 mm; in the test on Aspergillus niger [4], 27 mm. The inhibition zone (IZ) in [5] was found to be 28 mm; in test [6], 30 mm; in [7] it was 32 mm; in test [8], 34 mm.
With `Cc1ccc(/C=C\S(=O)(=O)Cc2nnc(N)s2)cc1`, the zone of inhibition at 12.5 µg/disc in the test on Staphylococcus aureus [11] was 19 mm; with Bacillus subtilis [15], 25 mm; in the test with Pseudomonas aeruginosa [19] it was 21 mm; in the test with Klebsiella pneumoniae [23], 23 mm; in the test with Aspergillus niger [1] it was 22 mm. The zone of inhibition at 25 µg/disc was determined as 20 mm in the test on Staphylococcus aureus [12]; 26 mm with Bacillus subtilis [16]; 23 mm in the test on Pseudomonas aeruginosa [20]; 25 mm in the test with Klebsiella pneumoniae [24]; 24 mm in the test on Aspergillus niger [2]. In addition, the zone of inhibition at 50 µg/disc in the test with Staphylococcus aureus [13] was found to be 21 mm; in the test with Bacillus subtilis [17], 27 mm; with Pseudomonas aeruginosa [21], 25 mm; with Klebsiella pneumoniae [25], 27 mm; in the test on Aspergillus niger [3], 26 mm. Moreover, the zone of inhibition at 100 µg/disc in the test on Staphylococcus aureus [14] was 23 mm; with Bacillus subtilis [18] it was 29 mm; in the test on Pseudomonas aeruginosa [22], 27 mm; in the test on Klebsiella pneumoniae [26] it was 29 mm; in the test with Aspergillus niger [4], 28 mm. Further, the inhibition zone (IZ) in test [5] was found to be 25 mm; in test [6], 27 mm; in test [7] it was 29 mm; in test [8], 31 mm.
`Nc1nnc(CS(=O)(=O)/C=C\c2ccccc2)o1`: the zone of inhibition at 12.5 µg/disc stood at 11 mm in the test on Staphylococcus aureus [11]; 12 mm in the test on Bacillus subtilis [15]; 14 mm in the test with Pseudomonas aeruginosa [19]; 15 mm in the test on Klebsiella pneumoniae [23]; 9 mm in the test on Aspergillus niger [1]. For the same compound, the zone of inhibition at 25 µg/disc came out at 13 mm with Staphylococcus aureus [12]; 13 mm with Bacillus subtilis [16]; 16 mm in the test on Pseudomonas aeruginosa [20]; 17 mm with Klebsiella pneumoniae [24]; 11 mm with Aspergillus niger [2]. Moreover, the zone of inhibition at 50 µg/disc turned out to be 15 mm with Staphylococcus aureus [13]; 14 mm in the test on Bacillus subtilis [17]; 18 mm with Pseudomonas aeruginosa [21]; 19 mm with Klebsiella pneumoniae [25]; 13 mm with Aspergillus niger [3]. Besides, the zone of inhibition at 100 µg/disc in the test with Staphylococcus aureus [14] is 18 mm; in the test with Bacillus subtilis [18], 16 mm; in the test with Pseudomonas aeruginosa [22] it was 20 mm; in the test on Klebsiella pneumoniae [26], 21 mm; with Aspergillus niger [4] it was 15 mm. Besides, the inhibition zone (IZ) was found to be 11 mm in test [5], 13 mm in [6], 15 mm in test [7] and 17 mm in [8].
Regarding `Nc1nnc(CS(=O)(=O)c2n[nH]cc2-c2ccccc2)s1`, the zone of inhibition at 12.5 µg/disc in the test with Staphylococcus aureus [11] turned out to be 20 mm; with Bacillus subtilis [15] it was 25 mm; with Pseudomonas aeruginosa [19], 22 mm; with Klebsiella pneumoniae [23], 26 mm; in the test with Aspergillus niger [1] it was 23 mm. Besides, the zone of inhibition at 25 µg/disc in the test with Staphylococcus aureus [12] came to 21 mm; in the test on Bacillus subtilis [16], 26 mm; in the test on Pseudomonas aeruginosa [20], 23 mm; with Klebsiella pneumoniae [24] it was 28 mm; in the test on Aspergillus niger [2], 25 mm. In addition, the zone of inhibition at 50 µg/disc in the test on Staphylococcus aureus [13] is 22 mm; in the test on Bacillus subtilis [17], 27 mm; with Pseudomonas aeruginosa [21], 25 mm; in the test on Klebsiella pneumoniae [25], 30 mm; in the test on Aspergillus niger [3], 27 mm. The zone of inhibition at 100 µg/disc in the test with Staphylococcus aureus [14] came to 24 mm; in the test with Bacillus subtilis [18] it was 29 mm; with Pseudomonas aeruginosa [22] it was 27 mm; in the test with Klebsiella pneumoniae [26], 32 mm; in the test with Aspergillus niger [4], 29 mm. In addition, the inhibition zone (IZ) came to 30 mm in [5], 32 mm in [6], 34 mm in [7] and 36 mm in test [8].
